{
  "source": "patent US11470846B2",
  "about": "“Herbicidal pyridino-/pyrimidino-thiazoles” (SYNGENTA PARTICIPATIONS AG, priority 2014, dated 2022)",
  "format_in_all_cases": "in vivo",
  "key": {"[1]": {"test_system": "Abutilon theophrasti (ABUTH)", "assay": "Pre-emergence herbicidal activity", "conditions": "pre-emergence application, 1000 g/Ha, evaluated after 13 days, scale 0-5", "in_short": "(§1)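 Seeds sown in standard soil, sprayed one day after sowing with active ingredient formulated in acetone/water (50:50) with 0.5% Tween 20. Glasshouse at 24/16 °C day/night, 14 h light, 65% humidity, watered twice daily; damage scored after 13 days on a 0–5 scale (5 = total damage).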"}, "[2]": {"test_system": "Amaranthus retroflexus (AMARE)", "assay": "Pre-emergence herbicidal activity", "conditions": "pre-emergence application, 1000 g/Ha, evaluated after 13 days, scale 0-5", "in_short": "as §1"}, "[3]": {"test_system": "Echinochloa crus-galli (ECHCG)", "assay": "Pre-emergence herbicidal activity", "conditions": "pre-emergence application, 1000 g/Ha, evaluated after 13 days, scale 0-5; Table 6", "in_short": "as §1"}, "[4]": {"test_system": "Lolium perenne (LOLPE)", "assay": "Pre-emergence herbicidal activity", "conditions": "pre-emergence application, 1000 g/Ha, evaluated after 13 days, scale 0-5; Table 6", "in_short": "as §1"}, "[5]": {"test_system": "Setaria faberi (SETFA)", "assay": "Pre-emergence herbicidal activity", "conditions": "pre-emergence application, 1000 g/Ha, evaluated after 13 days, scale 0-5", "in_short": "as §1"}, "[6]": {"test_system": "Zea Mays (ZEAMX)", "assay": "Pre-emergence herbicidal activity", "conditions": "pre-emergence application, 1000 g/Ha, evaluated after 13 days, scale 0-5", "in_short": "as §1"}, "[7]": {"test_system": "Abutilon theophrasti (ABUTH)", "assay": "Post-emergence herbicidal activity", "conditions": "post-emergence application, 1000 g/Ha, evaluated after 13 days, scale 0-5", "in_short": "(§2)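 Scores run from 0 (no damage) to 5 (total plant damage), assessed 13 days after spraying. Seedlings were treated 8 days after sowing with an aqueous spray from an acetone/water (50:50) formulation with 0.5% Tween 20, then kept at 24/16 °C day/night, 14 h light.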"}, "[8]": {"test_system": "Amaranthus retroflexus (AMARE)", "assay": "Post-emergence herbicidal activity", "conditions": "post-emergence application, 1000 g/Ha, evaluated after 13 days, scale 0-5", "in_short": "as §2"}, "[9]": {"test_system": "Echinochloa crus-galli (ECHCG)", "assay": "Post-emergence herbicidal activity", "conditions": "post-emergence application, 1000 g/Ha, evaluated after 13 days, scale 0-5; Table 8", "in_short": "as §2"}, "[10]": {"test_system": "Lolium perenne (LOLPE)", "assay": "Post-emergence herbicidal activity", "conditions": "post-emergence application, 1000 g/Ha, evaluated after 13 days, scale 0-5; Table 8", "in_short": "as §2"}, "[11]": {"test_system": "Setaria faberi (SETFA)", "assay": "Post-emergence herbicidal activity", "conditions": "post-emergence application, 1000 g/Ha, evaluated after 13 days, scale 0-5", "in_short": "as §2"}, "[12]": {"test_system": "Zea Mays (ZEAMX)", "assay": "Post-emergence herbicidal activity", "conditions": "post-emergence application, 1000 g/Ha, evaluated after 13 days, scale 0-5", "in_short": "as §2"}},
  "data": [
    {"smiles": "C#CCOC(=O)N(C)c1sc(-c2cccnc2)nc1C", "note": "[Compound B1, prop-2-ynyl N-methyl-N-[4-methyl-2-(3-pyridyl)thiazol-5-yl]carbamate]", "values": [
      {"measurement": "Control of weed species, ABUTH (damage score)", "setting": "[1]", "value": 2},
      {"measurement": "Control of weed species, AMARE (damage score)", "setting": "[2]", "value": 2},
      {"measurement": "Control of weed species, ECHCG (damage score)", "setting": "[3]", "value": 2},
      {"measurement": "Control of weed species, LOLPE (damage score)", "setting": "[4]", "value": 3},
      {"measurement": "Control of weed species, SETFA (damage score)", "setting": "[5]", "value": 5},
      {"measurement": "Control of weed species, ZEAMX (damage score)", "setting": "[6]", "value": 5},
      {"measurement": "Control of weed species, ABUTH (damage score)", "setting": "[7]", "value": 1},
      {"measurement": "Control of weed species, AMARE (damage score)", "setting": "[8]", "value": 1},
      {"measurement": "Control of weed species, ECHCG (damage score)", "setting": "[9]", "value": 4},
      {"measurement": "Control of weed species, LOLPE (damage score)", "setting": "[10]", "value": 3},
      {"measurement": "Control of weed species, SETFA (damage score)", "setting": "[11]", "value": 5},
      {"measurement": "Control of weed species, ZEAMX (damage score)", "setting": "[12]", "value": 5}
    ]},
    {"smiles": "C#CC(C)OC(=O)N(C)c1sc(-c2cccnc2)nc1C", "note": "(stereo not drawn) [Compound B2, 1-methylprop-2-ynyl N-methyl-N-[4-methyl-2-(3-pyridyl)thiazol-5-yl]carbamate]", "values": [
      {"measurement": "Control of weed species, ABUTH (damage score)", "setting": "[1]", "value": 3},
      {"measurement": "Control of weed species, AMARE (damage score)", "setting": "[2]", "value": 3},
      {"measurement": "Control of weed species, ECHCG (damage score)", "setting": "[3]", "value": 1},
      {"measurement": "Control of weed species, LOLPE (damage score)", "setting": "[4]", "value": 3},
      {"measurement": "Control of weed species, SETFA (damage score)", "setting": "[5]", "value": 5},
      {"measurement": "Control of weed species, ZEAMX (damage score)", "setting": "[6]", "value": 5},
      {"measurement": "Control of weed species, ABUTH (damage score)", "setting": "[7]", "value": 2},
      {"measurement": "Control of weed species, AMARE (damage score)", "setting": "[8]", "value": 2},
      {"measurement": "Control of weed species, ECHCG (damage score)", "setting": "[9]", "value": 2},
      {"measurement": "Control of weed species, LOLPE (damage score)", "setting": "[10]", "value": 4},
      {"measurement": "Control of weed species, SETFA (damage score)", "setting": "[11]", "value": 5},
      {"measurement": "Control of weed species, ZEAMX (damage score)", "setting": "[12]", "value": 4}
    ]},
    {"smiles": "C#CC(C)(C)OC(=O)N(C)c1sc(-c2cccnc2)nc1C", "note": "[Compound B3, 1,1-dimethylprop-2-ynyl N-methyl-N-[4-methyl-2-(3-pyridyl)thiazol-5-yl]carbamate]", "values": [
      {"measurement": "Control of weed species, ABUTH (damage score)", "setting": "[1]", "value": 4},
      {"measurement": "Control of weed species, AMARE (damage score)", "setting": "[2]", "value": 3},
      {"measurement": "Control of weed species, ECHCG (damage score)", "setting": "[3]", "value": 3},
      {"measurement": "Control of weed species, LOLPE (damage score)", "setting": "[4]", "value": 3},
      {"measurement": "Control of weed species, SETFA (damage score)", "setting": "[5]", "value": 4},
      {"measurement": "Control of weed species, ZEAMX (damage score)", "setting": "[6]", "value": 5},
      {"measurement": "Control of weed species, ABUTH (damage score)", "setting": "[7]", "value": 1},
      {"measurement": "Control of weed species, AMARE (damage score)", "setting": "[8]", "value": 2},
      {"measurement": "Control of weed species, ECHCG (damage score)", "setting": "[9]", "value": 4},
      {"measurement": "Control of weed species, LOLPE (damage score)", "setting": "[10]", "value": 4},
      {"measurement": "Control of weed species, SETFA (damage score)", "setting": "[11]", "value": 5},
      {"measurement": "Control of weed species, ZEAMX (damage score)", "setting": "[12]", "value": 5}
    ]}
  ]
}
